Results reported in ChEMBL document CHEMBL1135958, “Hepatobiliary excretion of dipyrrinone sulfonates in Mrp2-deficient (TR(-)) rats” (Bioorg Med Chem Lett, 2002).

Experiment: Pharmacokinetic parameter (Tmax) was estimated
Format: ADME, organism-based
Conditions: rat, in vivo

CCC1=C(C)C(=O)N/C1=C\c1[nH]c(C)c(CCS(=O)(=O)O)c1C
Tmax: 6 min
